# Measurements reported in patent publication US11945806B2, “Stabilization of amyloidogenic immunoglobulin light chains” (The Scripps Research Institute, priority 2019, dated 2024).
# Target: WIL-FL (Homo sapiens, UniProt P01721)
# Test: Unlabeled LC Protease Sensitivity Assay (proteinase K)
# Type: biochemical
# Conditions: small molecule 10 μM, WIL-FL 5 μM, proteinase K 50 nM, 2 hours at 37° C.
# How it was run: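 Compound at 10 μM (1% DMSO) is mixed with 5 μM WIL-FL and 50 nM proteinase K in PBS pH 7.4/0.02% Pluronic F-127, 37 °C, 2 h, then quenched with PMSF. Remaining protein measured by SEC-UPLC peak area at 280 nm and expressed as fold protection relative to vehicle and no-protease controls.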
row,Protection (fold protection of LC from protease),SMILES
1,B (3 ≤ B < 0.6),"CCN(CC)c1ccc2c(C)c(CCNC(=O)NCCc3cnc[nH]3)c(=O)oc2c1 [Compound 281, 1-(2-(1H-imidazol-5-yl)ethyl)-3-(2-(7-(diethylamino)-4-methyl-2-oxo-2H-chromen-3-yl)ethyl)urea]"
2,B (3 ≤ B < 0.6),"Cc1cc(=O)oc2cc(OCC(C)c3ccccc3)ccc12 (centres unmarked) [Compound 43, 4-methyl-7-(2-phenylpropoxy)-2H-chromen-2-one]"
3,C (C ≥ 0.6),"CCN(CC)c1ccc2c(C)c(CCOC(=O)NCc3cccc(-c4ccc[nH]c4=O)c3)c(=O)oc2c1 [Compound 163, 2-(7-(diethylamino)-4-methyl-2-oxo-2H-chromen-3-yl)ethyl (3-(2-oxo-1,2-dihydropyridin-3-yl)benzyl)carbamate]"
4,C (C ≥ 0.6),"CCN(CC)c1ccc2c(C)c(CCOC(=O)NCc3cccc(-c4cccnn4)c3)c(=O)oc2c1 [Compound 166, 2-(7-(diethylamino)-4-methyl-2-oxo-2H-chromen-3-yl)ethyl (3-(pyridazin-3-yl)benzyl)carbamate]"
5,A (A < 0.3)),"C#CCN(CC(=C)C)c1ccc2c(C)cc(=O)oc2c1 [Compound 261, 4-methyl-7-((2-methylallyl)(prop-2-yn-1-yl)amino)-2H-chromen-2-one]"
6,A (A < 0.3)),"CCN(CC)c1ccc2c(C)c(CCOC(=O)N3CCN(c4nn[nH]n4)CC3)c(=O)oc2c1 [Compound 115, 2-(7-(diethylamino)-4-methyl-2-oxo-2H-chromen-3-yl)ethyl 4-(2H-tetrazol-5-yl)piperazine-1-carboxylate]"
7,A (A < 0.3)),"CCN(CC)c1ccc2c(C)c(CCNC(=O)NCc3ccccn3)c(=O)oc2c1 [Compound 276, 1-(2-(7-(diethylamino)-4-methyl-2-oxo-2H-chromen-3-yl)ethyl)-3-(pyridin-2-ylmethyl)urea]"
8,A (A < 0.3)),"CCN(CC)c1ccc2c(C)c(CCOC(=O)NCc3cncc4ccccc34)c(=O)oc2c1 [Compound 140, 2-(7-(diethylamino)-4-methyl-2-oxo-2H-chromen-3-yl)ethyl (isoquinolin-4-ylmethyl)carbamate]"
9,B (3 ≤ B < 0.6),"CCN(CC)c1ccc2c(C)c(CCOC(=O)NCc3ccc4cc[nH]c(=O)c4c3)c(=O)oc2c1 [Compound 143, 2-(7-(diethylamino)-4-methyl-2-oxo-2H-chromen-3-yl)ethyl ((1-oxo-1,2-dihydroisoquinolin-7-yl)methyl)carbamate]"
10,C (C ≥ 0.6),"CCN(CC)c1ccc2c(C)c(CCN3CC4(CCN(c5ncnc6[nH]ncc56)CC4)NC3=O)c(=O)oc2c1 [Compound 222, 3-(2-(7-(diethylamino)-4-methyl-2-oxo-2H-chromen-3-yl)ethyl)-8-(1H-pyrazolo[3,4-d]pyrimidin-4-yl)-1,3,8-triazaspiro[4.5]decan-2-one]"
11,C (C ≥ 0.6),"CCN(CC)c1ccc2c(C)c(CCNC(=O)NCc3nccc4ccccc34)c(=O)oc2c1 [Compound 290, 1-(2-(7-(diethylamino)-4-methyl-2-oxo-2H-chromen-3-yl)ethyl)-3-(isoquinolin-1-ylmethyl)urea]"
12,A (A < 0.3)),"Cc1cc(=O)oc2cc(OC(c3ccccc3)c3ccccc3)ccc12 [Compound 42, 7-(benzhydryloxy)-4-methyl-2H-chromen-2-one]"
13,A (A < 0.3)),"C#CCN(C)c1ccc2c(C)cc(=O)oc2c1 [Compound 257, 4-methyl-7-(methyl(prop-2-yn-1-yl)amino)-2H-chromen-2-one]"
14,A (A < 0.3)),"CCN(CC)c1ccc2c(C)c(CCN3C(=O)NC4(CCN(S(=O)(=O)c5ccccc5)CC4)C3=O)c(=O)oc2c1 [Compound 200, 3-(2-(7-(diethylamino)-4-methyl-2-oxo-2H-chromen-3-yl)ethyl)-8-(phenylsulfonyl)-1,3,8-triazaspiro[4.5]decane-2,4-dione]"
15,A (A < 0.3)),"CCN(CC)c1ccc2c(C)c(CCOC(=O)NCCc3ccncc3)c(=O)oc2c1 [Compound 84, 2-(7-(diethylamino)-4-methyl-2-oxo-2H-chromen-3-yl)ethyl (2-(pyridin-4-yl)ethyl)carbamate]"
16,A (A < 0.3)),"CCN(CC)c1ccc2c(C)c(CCNC(=O)CCc3ccccc3)c(=O)oc2c1 [Compound 70, N-(2-(7-(diethylamino)-4-methyl-2-oxo-2H-chromen-3-yl)ethyl)-3-phenylpropanamide]"
17,A (A < 0.3)),"CCN(CC)c1ccc2c(C)c(CCN3C(=O)NC4(CCN(C(=O)c5ccc[nH]c5=O)CC4)C3=O)c(=O)oc2c1 [Compound 178, 3-(2-(7-(diethylamino)-4-methyl-2-oxo-2H-chromen-3-yl)ethyl)-8-(2-oxo-1,2-dihydropyridine-3-carbonyl)-1,3,8-triazaspiro[4.5]decane-2,4-dione]"

row,Protection (fold protection of LC from protease),SMILES
1,A (A < 0.3)),"CCN(CC)c1ccc2c(C)c(CCOC(=O)N3CCN(c4ccccn4)CC3)c(=O)oc2c1 [Compound 114, 2-(7-(diethylamino)-4-methyl-2-oxo-2H-chromen-3-yl)ethyl 4-(pyridin-2-yl)piperazine-1-carboxylate]"
2,B (3 ≤ B < 0.6),"CCN(CC)c1ccc2c(C)c(CCNC(=O)NCc3cccc(OCC(=O)O)c3)c(=O)oc2c1 [Compound 311, 2-(3-((3-(2-(7-(diethylamino)-4-methyl-2-oxo-2H-chromen-3-yl)ethyl)ureido)methyl)phenoxy)acetic acid]"
3,C (C ≥ 0.6),"CCN(CC)c1ccc2c(C)c(CCN3C(=O)NC4(CCN(c5ncnc6[nH]cnc56)C4)C3=O)c(=O)oc2c1 (centres unmarked) [Compound 197, 3-(2-(7-(diethylamino)-4-methyl-2-oxo-2H-chromen-3-yl)ethyl)-7-(9H-purin-6-yl)-1,3,7-triazaspiro[4.4]nonane-2,4-dione]"
4,A (A < 0.3)),"Cc1cc(=O)oc2cc(OC(C)c3ccccn3)ccc12 (centres unmarked) [Compound 174, 4-methyl-7-(1-(pyridin-2-yl)ethoxy)-2H-chromen-2-one]"
5,A (A < 0.3)),"CCN(CC)c1ccc2c(C)c(CCOC(=O)N3CC(C(=O)OC)C3)c(=O)oc2c1 [Compound 104, 1-(2-(7-(diethylamino)-4-methyl-2-oxo-2H-chromen-3-yl)ethyl) 3-methyl azetidine-1,3-dicarboxylate]"
6,B (3 ≤ B < 0.6),"CCN(CC)c1ccc2c(C)c(CCOC(=O)NCCc3cnc[nH]3)c(=O)oc2c1 [Compound 88, 2-(7-(diethylamino)-4-methyl-2-oxo-2H-chromen-3-yl)ethyl (2-(1H-imidazol-4-yl)ethyl)carbamate]"
7,A (A < 0.3)),"Cc1cc(=O)oc2cc(N3CCCC3)ccc12 [Compound 36, 4-methyl-7-(pyrrolidin-1-yl)-2H-chromen-2-one]"
8,A (A < 0.3)),"Cc1cc(=O)oc2cc(N(C)CC3CC3)ccc12 [Compound 255, 7-((cyclopropylmethyl)(methyl)amino)-4-methyl-2H-chromen-2-one]"
9,A (A < 0.3)),"CCN(CC)c1ccc2c(C)c(CCNC(=O)NCc3ccnc4ccccc34)c(=O)oc2c1 [Compound 287, 1-(2-(7-(diethylamino)-4-methyl-2-oxo-2H-chromen-3-yl)ethyl)-3-(quinolin-4-ylmethyl)urea]"
10,B (3 ≤ B < 0.6),"CCN(CC)c1ccc2c(C)c(CCOC(=O)NCc3ncccn3)c(=O)oc2c1 [Compound 93, 2-(7-(diethylamino)-4-methyl-2-oxo-2H-chromen-3-yl)ethyl (pyrimidin-2-ylmethyl)carbamate]"
11,A (A < 0.3)),"CCN(CC)c1ccc2c(C)c(CCC(=O)NC)c(=O)oc2c1 [Compound 66, 3-(7-(diethylamino)-4-methyl-2-oxo-2H-chromen-3-yl)-N-methylpropanamide]"
12,B (3 ≤ B < 0.6),"CCN(CC)c1ccc2c(C)c(CCN3C(=O)NC4(CCN(C(=O)c5cncnc5)C4)C3=O)c(=O)oc2c1 (centres unmarked) [Compound 209, 3-(2-(7-(diethylamino)-4-methyl-2-oxo-2H-chromen-3-yl)ethyl)-7-(pyrimidine-5-carbonyl)-1,3,7-triazaspiro[4.4]nonane-2,4-dione]"
13,A (A < 0.3)),"CCN(CC)c1ccc2c(C)c(CCOC(=O)NCc3ccccc3)c(=O)oc2c1 [Compound 78, 2-(7-(diethylamino)-4-methyl-2-oxo-2H-chromen-3-yl)ethyl benzylcarbamate]"
14,A (A < 0.3)),"CCN(CC)c1ccc2c(C)c(CCOC(=O)NCCc3cccnc3)c(=O)oc2c1 [Compound 83, 2-(7-(diethylamino)-4-methyl-2-oxo-2H-chromen-3-yl)ethyl (2-(pyridin-3-yl)ethyl)carbamate]"
15,C (C ≥ 0.6),"CCN(CC)c1ccc2c(C)c(CCOC(=O)NCc3cc(F)cc(C(N)=O)c3)c(=O)oc2c1 [Compound 145, 2-(7-(diethylamino)-4-methyl-2-oxo-2H-chromen-3-yl)ethyl (3-carbamoyl-5-fluorobenzyl)carbamate]"
16,C (C ≥ 0.6),"CCN(CC)c1ccc2c(C)c(CCOC(=O)NCc3cccc(-c4nc[nH]n4)c3)c(=O)oc2c1 [Compound 165, 2-(7-(diethylamino)-4-methyl-2-oxo-2H-chromen-3-yl)ethyl (3-(1H-1,2,4-triazol-5-yl)benzyl)carbamate]"
17,A (A < 0.3)),"Cc1cc(=O)oc2cc(OC(C)c3ccccc3F)ccc12 (centres unmarked) [Compound 49, 7-(1-(2-fluorophenyl)ethoxy)-4-methyl-2H-chromen-2-one]"

row,SMILES,Protection (fold protection of LC from protease)
1,"CCC(C)Oc1ccc2c(C)cc(=O)oc2c1 (centres unmarked) [Compound 32, 7-(sec-butoxy)-4-methyl-2H-chromen-2-one]",A (A < 0.3))
